In ChEMBL document CHEMBL1151218, “A new ursane triterpene from Monochaetum vulcanicum that inhibits DNA polymerase beta lyase” (J Nat Prod, 2004):

Each molecule was assayed against DNA polymerase beta (Homo sapiens, UniProt P06746) (assay: Inhibition of DNA polymerase beta lyase activity).

Going from C[C@H]1[C@H](C)CC[C@]2(C(=O)O)CC[C@]3(C)C(=CC[C@@H]4[C@@]5(C)CC[C@H](OC(=O)/C=C/c6ccc(O)cc6)C(C)(C)[C@@H]5CC[C@]43C)[C@H]12 to C[C@H]1[C@H](C)CC[C@]2(C(=O)O)CC[C@]3(C)C(=CC[C@@H]4[C@@]5(C)CC[C@H](O)C(C)(C)[C@@H]5CC[C@]43C)[C@H]12 [URSOLIC ACID], the IC50 falls from over 50 µM to 18.6 µM. The second is the more potent here.

Compared with CC[C@H](CC[C@@H](C)[C@H]1CC[C@H]2[C@@H]3CC=C4C[C@@H](O[C@@H]5O[C@H](CO)[C@@H](O)[C@H](O)[C@H]5O)CC[C@]4(C)[C@H]3CC[C@]12C)C(C)C [SITOGLUSIDE], C[C@H]1[C@H](C)CC[C@]2(C(=O)O)CC[C@]3(C)C(=CC[C@@H]4[C@@]5(C)C[C@@H](O)[C@H](O)C(C)(C)[C@@H]5CC[C@]43C)[C@H]12 [COROSOLIC ACID] is 2.1-fold lower in IC50: 26.5 µM for the first, 12.6 µM for the second. The second is the more potent here.

For CC(=O)O[C@H]1[C@H](O)C[C@]2(C)[C@H]3CC=C4[C@@H]5[C@@H](C)[C@H](C)CC[C@]5(C(=O)O)CC[C@@]4(C)[C@]3(C)CC[C@H]2C1(C)C, the IC50 was 21.5 µM.
